Data reported in US12612407B2, “Imidazo[2,1-f][1,2,4]triazin-4-amine derivatives as TLR7 agonist” (BEIGENE, LTD., priority 2020, dated 2026).

Molecular target: T1, human TLR7 (Homo sapiens, UniProt Q9NYK1)
T1 construct: host or cells: HEK293 (HEK-Blue hTLR7)
T1 sequence (Q9NYK1 27-1049): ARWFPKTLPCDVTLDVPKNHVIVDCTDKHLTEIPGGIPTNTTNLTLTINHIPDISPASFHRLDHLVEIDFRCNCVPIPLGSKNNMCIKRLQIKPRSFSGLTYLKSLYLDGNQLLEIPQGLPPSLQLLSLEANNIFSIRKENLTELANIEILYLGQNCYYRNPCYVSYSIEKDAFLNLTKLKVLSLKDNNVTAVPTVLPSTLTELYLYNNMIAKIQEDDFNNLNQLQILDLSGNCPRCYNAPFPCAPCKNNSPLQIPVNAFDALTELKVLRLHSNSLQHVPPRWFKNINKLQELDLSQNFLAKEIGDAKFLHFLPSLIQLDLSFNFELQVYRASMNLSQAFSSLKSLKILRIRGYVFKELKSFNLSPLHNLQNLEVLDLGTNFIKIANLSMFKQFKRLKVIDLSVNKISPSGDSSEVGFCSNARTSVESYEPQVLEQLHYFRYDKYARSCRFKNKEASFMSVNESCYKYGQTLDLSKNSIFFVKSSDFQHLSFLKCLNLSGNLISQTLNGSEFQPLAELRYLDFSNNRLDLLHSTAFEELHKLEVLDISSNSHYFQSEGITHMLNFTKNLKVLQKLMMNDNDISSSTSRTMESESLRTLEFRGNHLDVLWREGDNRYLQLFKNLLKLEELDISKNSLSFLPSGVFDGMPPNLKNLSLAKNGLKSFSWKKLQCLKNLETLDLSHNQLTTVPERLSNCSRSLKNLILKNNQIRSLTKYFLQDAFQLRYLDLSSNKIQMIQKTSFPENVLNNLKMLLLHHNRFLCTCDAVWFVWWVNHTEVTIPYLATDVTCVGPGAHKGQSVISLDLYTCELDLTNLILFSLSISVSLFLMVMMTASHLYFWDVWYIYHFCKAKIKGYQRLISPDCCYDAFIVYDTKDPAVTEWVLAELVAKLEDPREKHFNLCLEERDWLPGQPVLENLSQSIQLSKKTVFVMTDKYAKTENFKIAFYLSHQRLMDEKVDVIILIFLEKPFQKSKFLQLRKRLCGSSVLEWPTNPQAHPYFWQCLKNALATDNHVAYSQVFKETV
Experiment: HEK293-Blue hTLR7 Reporter Assay (QUANTI-BLUE, SEAP readout)
Type: cell-based
Conditions: HEK-Blue-hTLR7 cells, 24 hrs treatment, Table 1, B1-B232
Method in brief: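 Compound titrations were applied for 24 h at 37° C to reporter HEK293 cells (4×10^4 per well) in which human TLR7 activation drives secreted alkaline phosphatase. Supernatants reacted with Quanti-blue 10-30 min, absorbance read at 620-655 nm, and EC50 derived by sigmoidal curve fitting.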

Row | EC50 | SMILES
1 | 5.6 nM | CCCC(C)Oc1nc(N)c2ncc(Cc3cnc(N4CCC(N(C)C)CC4)c(C)c3)n2n1 (stereo not shown) [Compound B133, 7-((6-(4-(dimethylamino)piperidin-1-yl)-5-methylpyridin-3-yl)methyl)-2-(pentan-2-yloxy)imidazo[2,1-f][1,2,4]triazin-4-amine]
2 | 6 nM | CCCC(C)Oc1nc(N)c2ncc(Cc3cnc(N4CCC(CN(C)C)CC4)c(C)c3)n2n1 (stereo not shown) [Compound B134, 7-((6-(4-((dimethylamino)methyl)piperidin-1-yl)-5-methylpyridin-3-yl)methyl)-2-(pentan-2-yloxy)imidazo[2,1-f][1,2,4]triazin-4-amine]
3 | 22 nM | CCCCNc1nc(N)c2ncc(Cc3cnc(N4CCC(N(C)C)CC4)c(C)c3)n2n1 [Compound B135, N2-butyl-7-((6-(4-(dimethylamino)piperidin-1-yl)-5-methylpyridin-3-yl)methyl)imidazo[2,1-f][1,2,4]triazine-2,4-diamine]
4 | 4.1 nM | CCCC(C)Nc1nc(N)c2ncc(Cc3cnc(N4CCC(CN(C)C)CC4)c(C)c3)n2n1 (stereo not shown) [Compound B137, 7-((6-(4-((dimethylamino)methyl)piperidin-1-yl)-5-methylpyridin-3-yl)methyl)-N2-(pentan-2-yl)imidazo[2,1-f][1,2,4]triazine-2,4-diamine]
5 | 5.5 nM | CCCC(C)Nc1nc(N)c2ncc(Cc3cnc(N4CCC(N(C)C)CC4)c(C)c3)n2n1 (stereo not shown) [Compound B138, 7-((6-(4-(dimethylamino)piperidin-1-yl)-5-methylpyridin-3-yl)methyl)-N^2-(pentan-2-yl)imidazo[2,1-f][1,2,4]triazine-2,4-diamine]
6 | 88 nM | CCCNc1nc(N)c2ncc(Cc3cnc(N4CCNCC4)c(C)c3)n2n1 [Compound B139, 7-((5-methyl-6-(piperazin-1-yl)pyridin-3-yl)methyl)-N2-propylimidazo[2,1-f][1,2,4]triazine-2,4-diamine]
7 | 154 nM | CCCCc1nc(N)c2ncc(Cc3cnc(N4CCNCC4)c(C)c3)n2n1 [Compound B141, 2-butyl-7-((5-methyl-6-(piperazin-1-yl)pyridin-3-yl)methyl)imidazo[2,1-f][1,2,4]triazin-4-amine]
8 | 7.8 nM | CCCC(CCC)Oc1nc(N)c2ncc(Cc3cnc(N4CCNCC4)c(C)c3)n2n1 [Compound B143, 2-(heptan-4-yloxy)-7-((5-methyl-6-(piperazin-1-yl)pyridin-3-yl)methyl)imidazo[2,1-f][1,2,4]triazin-4-amine]

Row | SMILES | EC50
9 | CCCCOc1nc(N)c2ncc(Cc3cnc(N4CC(N)C4)c(C)c3)n2n1 [Compound B136, 7-((6-(3-aminoazetidin-1-yl)-5-methylpyridin-3-yl)methyl)-2-butoxyimidazo[2,1-f][1,2,4]triazin-4-amine] | 4980 nM
10 | CCCCOc1nc(N)c2ncc(Cc3cnc(N4CCC(NC(=O)CN(C)C)CC4)c(C)c3)n2n1 [Compound B142, N-(1-(5-((4-amino-2-butoxyimidazo[2,1-f][1,2,4]triazin-7-yl)methyl)-3-methylpyridin-2-yl)piperidin-4-yl)-2-(dimethylamino)acetamidea] | 45 nM
11 | CCCCOc1nc(N)c2ncc(Cc3cnc(N4CCC(CN)CC4)c(C)c3)n2n1 [Compound B144, 7-((6-(4-(aminomethyl)piperidin-1-yl)-5-methylpyridin-3-yl)methyl)-2-butoxyimidazo[2,1-f][1,2,4]triazin-4-amine] | > 10000 nM
12 | CC[C@H](C)Oc1nc(N)c2ncc(Cc3cnc(N4CCN(C(=O)CN(C)C)CC4)c(C)c3)n2n1 [Compound B145, (S)-1-(4-(5-((4-amino-2-(sec-butoxy)imidazo[2,1-f] [1,2,4]triazin-7-yl)methyl)-3-methylpyridin-2-yl)piperazin-1-yl)-2-(dimethylamino)ethan-1-one] | 8 nM
13 | CC[C@H](C)Oc1nc(N)c2ncc(Cc3cnc(N4CCN(C(=O)CNC)CC4)c(C)c3)n2n1 [Compound B146, (S)-1-(4-(5-((4-amino-2-(sec-butoxy)imidazo[2,1-f][1,2,4]triazin-7-yl)methyl)-3-methylpyridin-2-yl)piperazin-1-yl)-2-(methylamino)ethan-1-one] | 10 nM
